Measurements: patent publication US6608086B2, “Dihydropyridines and new uses thereof” (Synaptic Pharmaceutical Corporation, priority 1993, dated 2003)
Structures can show the parent of a compound that is named as a salt.

tested on: not given; assay: not given; settings: not given

| Structure (SMILES) | melting point |
| --- | --- |
| COC(=O)C1=C(C)NC(C)=C(C(=O)NCCCN2CCC(c3ccccc3)(c3ccccc3)CC2)C1c1ccc(C(F)(F)F)cc1 (centres unmarked) [Example 1] | 228 to 231 °C |
| COC(=O)C1=C(C)NC(C)=C(C(=O)NCCCN2CCC(c3ccccc3)(c3ccccc3)CC2)C1c1ccncc1 (centres unmarked) [Example 5, 1,4-Dihydro-5-methoxycarbonyl-2,6-dimethyl-3-(N-(3-(4,4-diphenylpiperidin-1-yl)propyl)carboxamido)-4-(4-pyridyl)pyridine] | 224 to 226 °C (dec.) |
| COC(=O)C1=C(C)NC(C)=C(C(=O)NCCCN2CCC(c3ccccc3)(c3ccccc3)CC2)C1C1CCCCC1 (centres unmarked) [Example 6] | 171 to 174 °C |
| COC(=O)C1=C(C)NC(C)=C(C(=O)NCCCN2CCC(c3ccccc3)(c3ccccc3)CC2)C1c1ccc(-c2ccccc2)cc1 (centres unmarked) [Example 7] | 136 to 139 °C |

molecular target: T1, α2B receptor (Homo sapiens, UniProt P18089); assay: Competition binding, [3H]rauwolscine, human α2B receptor; settings: [3H]rauwolscine, LM(tk-) cell line L-NGC-α2B; SEM and n in lines below; read-out: pKi alpha-2 2b (converted)
T1 construct: host or cells: LM(tk-) cells, line L-NGC-α2B
T1 sequence (P18089 1-450): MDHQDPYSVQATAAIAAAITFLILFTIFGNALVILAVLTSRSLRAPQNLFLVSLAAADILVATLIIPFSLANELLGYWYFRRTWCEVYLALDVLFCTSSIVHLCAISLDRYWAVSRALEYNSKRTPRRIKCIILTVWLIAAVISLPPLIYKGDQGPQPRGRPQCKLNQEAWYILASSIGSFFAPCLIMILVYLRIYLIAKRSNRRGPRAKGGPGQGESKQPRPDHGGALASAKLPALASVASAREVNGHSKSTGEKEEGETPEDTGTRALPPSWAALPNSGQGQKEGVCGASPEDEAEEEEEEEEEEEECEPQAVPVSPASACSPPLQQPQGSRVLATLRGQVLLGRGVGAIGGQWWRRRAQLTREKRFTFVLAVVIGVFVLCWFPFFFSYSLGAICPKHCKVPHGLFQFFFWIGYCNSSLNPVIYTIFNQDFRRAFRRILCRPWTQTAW
Summary of the method: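 Cell lysates from stably transfected LM(tk−) lines are resuspended in 25 mM glycylglycine (pH 7.6 at room temperature), incubated to equilibrium with 0.5 nM [3H]rauwolscine plus competitor, then filtered through GF/B filters; 10 μM phentolamine defines nonspecific binding.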

| Structure (SMILES) | Ki [nM] |
| --- | --- |
| COC(=O)C1=C(C)NC(C)=C(C(=O)NCCCN2CCC(c3ccccc3)(c3ccccc3)CC2)C1c1ccc([N+](=O)[O-])c(C)c1 (centres unmarked) [Example 28] | 1660 |

same assay, conditions: [3H]rauwolscine, human α2B receptor, LM(tk−) cells; read-out: pKi alpha-2 2b (converted)

| Structure (SMILES) | Ki [nM] |
| --- | --- |
| CCC1=C(C(N)=O)C(c2ccc([N+](=O)[O-])cc2)C(C(=O)NCCCN2CCN(c3ccccc3OC)CC2)=C(CC)N1 (centres unmarked) [Example 125, 5-Carboxamido-2,6-diethyl-1,4-dihydro-3-(N-{3-[4-(2-methoxyphenyl)piperazin-1-yl]propyl})carboxamido-4-(4-nitrophenyl)pyridine] | 186 |
| CCC1=C(C(=O)OCCC#N)C(c2ccc([N+](=O)[O-])cc2)C(C(=O)NCCCN2CCC(c3ccccc3)(c3ccccc3)CC2)=C(COC)N1 (centres unmarked) [Example 135] | 389 |
| CC1=C(C(=O)NCCCN2CCC(c3ccccc3)(c3ccccc3)CC2)C(c2ccc([N+](=O)[O-])cc2)C(C(=O)OCCC#N)=C(C)N1 (centres unmarked) [Example 160] | 148 |

same assay, conditions: pKi alpha-2 2b

| Structure (SMILES) | Ki [nM] |
| --- | --- |
| COC(=O)C1=C(C)NC(C)=C(C(=O)NCCCN2CCC(c3ccccc3)(c3ccccc3)CC2)C1c1ccc(C(F)(F)F)cc1 (centres unmarked) [Example 1] | 3310 |
| COC(=O)C1=C(C)NC(C)=C(C(=O)NCCCN2CCC(c3ccccc3)(c3ccccc3)CC2)C1c1ccncc1 (centres unmarked) [Example 5, 1,4-Dihydro-5-methoxycarbonyl-2,6-dimethyl-3-(N-(3-(4,4-diphenylpiperidin-1-yl)propyl)carboxamido)-4-(4-pyridyl)pyridine] | 2140 |
| COC(=O)C1=C(C)NC(C)=C(C(=O)NCCCN2CCC(c3ccccc3)(c3ccccc3)CC2)C1C1CCCCC1 (centres unmarked) [Example 6] | 447 |
| COC(=O)C1=C(C)NC(C)=C(C(=O)NCCCN2CCC(c3ccccc3)(c3ccccc3)CC2)C1c1ccc(-c2ccccc2)cc1 (centres unmarked) [Example 7] | 1620 |
| COC(=O)C1=C(C)NC(C)=C(C(=O)NCCCN2CCC(c3ccccc3)(c3ccccc3)CC2)C1c1ccc2ccccc2c1 (centres unmarked) [Example 22] | 912 |
| CC1=C(C#N)C(c2ccc([N+](=O)[O-])cc2)C(C(=O)NCCCN2CCC(c3ccccc3)(c3ccccc3)CC2)=C(C)N1 (centres unmarked) [Example 37] | 1070 |
| COC(=O)C1=C(C)NC(C)=C(C(=O)N(C)CCCN2CCC(c3ccccc3)(c3ccccc3)CC2)C1c1ccc([N+](=O)[O-])cc1 (centres unmarked) [Example 46, hydrochloride hemihydrate] | 490 |
| COC(=O)C1=C(C)NC(C)=C(C(=O)NCCN2CCC(c3ccccc3)(c3ccccc3)CC2)C1c1ccc([N+](=O)[O-])cc1 (centres unmarked) [Example 52, 1,4-Dihydro-3-methoxycarbonyl-2,6-dimethyl-4-(4-nitrophenyl)-5-{N-[2-(4,4-diphenylpiperidin-1-yl)ethyl]}carboxamidopyridine hydrochloride hemihydrate] | 794 |
| COC(=O)C1=C(C)NC(c2ccccc2)=C(C(=O)NCCCN2CCC(c3ccccc3)(c3ccccc3)CC2)C1c1ccc([N+](=O)[O-])cc1 (centres unmarked) [Example 78, 1,4-Dihydro-5-methoxycarbonyl-6-methyl-4-(4-nitro)phenyl-2-phenyl-3-(N-(3-(4,4-diphenylpiperidin-1-yl)propyl))carboxamidopyridine hydrochloride hydrate] | 550 |
| CCOC(=O)C1=C(CC(=O)NCCCN2CCC(c3ccccc3)(c3ccccc3)CC2)NC(C)=C(C(=O)OC)C1c1ccc([N+](=O)[O-])cc1 (centres unmarked) [Example 89, 3-Ethoxycarbonyl-1,4-dihydro-5-methoxycarbonyl-6-methyl-4-(4-nitro)phenyl-2-(N-(3-(4,4,-diphenylpiperidin-1-yl)propyl)carboxamido)methylpyridine, fumarate salt] | 1950 |
| COC(=O)C1=C(C)N(C)C(C)=C(C(=O)OCCCN2CCC(c3ccccc3)(c3ccccc3)CC2)C1c1ccc([N+](=O)[O-])cc1 (centres unmarked) [Example 92, 1,4-Dihydro-5-methoxycarbonyl-1,2,6-trimethyl-4-(4-nitrophenyl)-3-[3-(4,4-diphenylpiperidin-1-yl)propoxy]carbonylpyridine hydrochloride hydrate] | 724 |
| CCC1=C(C(N)=O)C(c2ccc([N+](=O)[O-])cc2)C(C(=O)NCCCN2CCC(c3ccc(OC)cc3)(c3ccc(OC)cc3)CC2)=C(CC)N1 (centres unmarked) [Example 103, 5-Carboxamido-2,6-diethyl-1,4-dihydro-3-{N-[3-(4,4-bis-(4-methoxyphenyl)piperidin-1-yl)propyl]}carboxamido}-4-(4-nitrophenyl)pyridine hydrochloride] | 741 |
| CCC1=C(C(N)=O)C(c2ccc([N+](=O)[O-])cc2)C(C(=O)NCCCN2CCC3(CC2)C(=O)NCN3c2ccccc2)=C(CC)N1 (centres unmarked) [Example 105, 5-Carboxamido-2,6-diethyl-1,4-dihydro-4-(4-nitrophenyl)-3-{N-[3-(1-phenyl-4-oxo-1,3,8-triazaspiro[4.3]decan-8-yl)propyl]}carboxamidopyridine hydrochloride hydrate] | 2190 |
| CCC1=C(C(=O)NCCCN2CCC(c3ccccc3)(c3ccccc3)CC2)C(c2ccc(N)cc2)C(C(=O)OC)=C(C)N1 (centres unmarked) [Example 114, 4-(4-Aminophenyl)-2-ethyl-1,4-dihydro-5-methoxycarbonyl-6-methyl-3-(N-(3-(4,4-diphenylpiperidin-1-yl)propyl)carboxamido)-pyridine] | 468 |

same assay, conditions: pKi alpha-2 2b, [3H]rauwolscine, LM(tk-) cell line L-NGC-α2B; SEM and n in lines below

| Structure (SMILES) | Ki [nM] |
| --- | --- |
| CCC1=C(C(=O)NCCCN2CCC(c3ccccc3)(c3ccccc3)CC2)C(c2ccc([N+](=O)[O-])cc2)C(C(=O)OCc2ccccc2)=C(C)N1 (centres unmarked) [Example 4, 5-Benzyloxycarbonyl-2-ethyl-1,4-dihydro-6-methyl-4-(4-nitrophenyl)-3-(N-(3-(4,4-diphenylpiperidin-1-yl)propyl)carboxamido) pyridine, Hydrochloride Salt, Hydrate] | 1020 |
| COC(=O)C1=C(C)NC(c2ccoc2)=C(C(=O)NCCCN2CCC(c3ccccc3)(c3ccccc3)CC2)C1c1ccc([N+](=O)[O-])cc1 (centres unmarked) [Example 43, 2-(Furan-3-yl)-, 4-dihydro-5-methoxycarbonyl-6-methyl-4-(4-nitrophenyl)-3-(N-(3-(4,4-diphenylpiperidin-1-yl)propyl)carboxamidopyridine, hydrochloride salt] | 437 |
| CC1=C(C(N)=O)C(c2ccc([N+](=O)[O-])cc2)C(C(=O)NCCN2CCC(c3ccccc3)(c3ccccc3)CC2)=C(C)N1 (centres unmarked) [Example 54, 5-Carboxamide-1,4-dihydro-2,6-dimethyl-4-(4-nitrophenyl)-3-{N-[2-(4,4-diphenylpiperidin-1-yl)ethyl]}carboxamidopyridine hydrochloride hydrate] | 302 |

same assay, conditions: pKi alpha-2 2b, [3H]rauwolscine, human α2B receptor, LM(tk−) cells

| Structure (SMILES) | Ki [nM] |
| --- | --- |
| CCC1=C(C(N)=O)C(c2ccc([N+](=O)[O-])cc2)C(C(=O)NCCCN2CCC(C#N)(c3ccccc3)CC2)=C(CC)N1 (racemic) [(±)-102, 5-Carboxamido-3-{N-[(4-cyano-4-phenylpiperidin-1-ly)propyl]carboxamido-2,6-diethyl-1,4-dihydro-4-(4-nitrophenyl)pyridine hydrochloride hydrate] | 1020 |
| CCC1=C(C(N)=O)C(c2ccc([N+](=O)[O-])cc2)C(C(=O)NCCCN2CCC(C#N)(c3ccccc3)CC2)=C(CC)N1 (single isomer, unassigned; (-)) [(−)-102] | 589 |
| COc1ccc(C2(c3ccccc3)CCN(CCCNC(=O)C3=C(C)NC(C)=C(C(N)=O)C3c3ccc([N+](=O)[O-])cc3)CC2)cc1 (centres unmarked) [Example 98, 5-Carboxamido-1,4-dihydro-3-{N-[3-(4-(4-methoxyphenyl)-4-phenylpiperidin-1-yl)propyl]}carboxamido-2,6-dimethyl-4-(4-nitrophenyl)pyridine hydrochloride] | 589 |
| CCC1=C(C(N)=O)C(c2ccc([N+](=O)[O-])cc2)C(C(=O)NCCCN2CCC(O)(c3ccccc3)CC2)=C(CC)N1 (centres unmarked) [Example 100, 5-Carboxamido-2,6-diethyl-1,4-dihydro-3-{N-(3-(4-hydroxy-4-phenylpiperidin-1-yl)propyl]}carboxamido-4-(4-nitrophenyl)pyridine hydrochloride hydrate] | 2880 |
| CCC1=C(C(N)=O)C(c2ccc([N+](=O)[O-])cc2)C(C(=O)NCCCN2CCC(C)(c3ccccc3)CC2)=C(CC)N1 (centres unmarked) [Example 106, 5-Carboxamido-2,6-diethyl-1,4-dihydro-3-{N-[3-(4-Methyl-4-phenylpiperidin-1-yl)propyl]}carboxamido-4-(4-nitrophenyl)pyridine hydrochloride hydrate] | 372 |
| CCC1=C(C(N)=O)C(c2ccc(S(C)(=O)=O)cc2)C(C(=O)NCCCN2CCC(c3ccccc3)(c3ccccc3)CC2)=C(CC)N1 (centres unmarked) [Example 116, 5-Carboxamido-2,6-diethyl-1,4-dihydro-4-(4-methanesulfonylphenyl)-3-(N-(3-(4,4-diphenylpiperidin-1-yl)propyl)carboxamido)-pyridine] | 372 |
| CCC1=C(C(=O)NCCCN2CCC(c3ccccc3)(c3ccccc3)CC2)C(c2ccc([N+](=O)[O-])cc2)C(C(=O)NC)=C(COCCN=[N+]=[N-])N1 (centres unmarked) [Example 151, 2-((2-Azidoethyl)oxy)methyl-6-ethyl-1,4-dihydro-3-(N-methyl)carboxamido-4-(4-nitro)phenyl-5-(N-(3-(4,4-diphenylpiperidin-1-yl)propyl))carboxamidopyridine] | 537 |
